The values that follow come from ChEMBL document CHEMBL1146159, “Design, synthesis, and preliminary biological evaluation of novel ethyl 1-(2'-hydroxy-3'-aroxypropyl)-3-aryl-1H-pyrazole-5-carboxylate” (Bioorg Med Chem Lett, 2006).

The source made the active and inactive calls. No cut-off for these calls is given here.

As usually defined, the IC50 is the point on the concentration scale where inhibition reaches its midpoint. High values mean lower potency, low ones higher potency.

What all share (format): functional, cell-based
The subject of test [1] is A549. Kind of test: Growth inhibition in A549 cells at 100 uM by MTT assay. Conditions: Homo sapiens. (Formazan colour is commonly taken as a measure of viable cells.)
Test [2] concerns A549. Kind of test: Growth inhibition in A549 cells at 25 uM after 24 hrs by MTT assay. To be noted: Homo sapiens.
Test [3] has as its system A549. Kind of test: Growth inhibition in A549 cells after 48 hrs by MTT assay. Conditions: Homo sapiens, A549, 48 h.
For test [4], the system named is A549. Briefly: Growth inhibition in A549 cells at 12.5 uM after 48 hrs by MTT assay. Conditions: Homo sapiens.
Test [5] has as its system A549. Briefly: Growth inhibition in A549 cells at 25 uM after 48 hrs by MTT assay. To be noted: Homo sapiens.
Test [6] concerns A549. Briefly: Growth inhibition in A549 cells at 50 uM by MTT assay. Conditions: Homo sapiens.
Test [7] concerns A549. Briefly: Effect on cell morphology in A549 cells assessed as induction of differentiation at 50 uM. Conditions: Homo sapiens.
Test [8] relates to A549. Kind of test: Effect on cell morphology in A549 cells assessed as induction of cellular vacuolation. Conditions: Homo sapiens.

Consider `CCOC(=O)c1cc(-c2ccc(Cl)cc2)nn1CC(O)COc1ccccc1[N+](=O)[O-]` (stereo unspecified), for which the outcome in the test with A549 [1], in the test on A549 [2], in the test with A549 [4] and with A549 [6] was Active. For the same compound, in the test on A549 [3], the IC50 was found to be 26 µM. In the test with A549 [5], the outcome was inactive.
On to `CCOC(=O)c1cc(-c2ccccc2)nn1CC(O)COc1ccc(Cl)cc1` (stereo unspecified), for which the result in the test with A549 [1] and in the test on A549 [6] was Active. The compound also returned an IC50 in the test on A549 [3] of 59 µM.
Consider `CCOC(=O)c1cc(-c2ccc(OC)cc2)nn1CC(O)COc1ccc(Cl)cc1` (stereo unspecified), for which the outcome in the test on A549 [1] and in the test on A549 [6] was Active. Moreover, in the test on A549 [3], the IC50 was determined as 38 µM.
Regarding `CCOC(=O)c1cc(-c2ccc(Cl)cc2)nn1CC(O)COc1ccccc1OC` (stereo unspecified), the outcome with A549 [1], with A549 [5] and with A549 [6] was Active. In the test with A549 [3], this compound displayed an IC50 of 32 µM.
Consider `CCOC(=O)c1cc(-c2ccccc2)nn1CC(O)COc1ccc([N+](=O)[O-])cc1` (stereo unspecified), for which the result with A549 [1], in the test with A549 [2] and in the test on A549 [6] was Active. The compound further yielded an IC50 in the test with A549 [3] of 48 µM. The result with A549 [5] was inactive.
For `CCOC(=O)c1cc(-c2ccc(OC)cc2)nn1CC(O)COc1ccccc1` (stereo unspecified), the result in the test with A549 [1], with A549 [5] and with A549 [6] was Active. For the same compound, in the test on A549 [3], the IC50 worked out at 33 µM.
In the case of `CCOC(=O)c1cc(-c2ccccc2)nn1CC(O)COc1ccccc1OC` (stereo unspecified), the result in the test on A549 [1], in the test on A549 [2] and in the test on A549 [6] was Active. The compound also came in with an IC50 in the test with A549 [3] of 58 µM. The result with A549 [5] was inactive.
For the compound `CCOC(=O)c1cc(-c2ccccc2)nn1CC(O)COc1ccccc1[N+](=O)[O-]` (stereo unspecified), the outcome in the test with A549 [1], in the test with A549 [2] and in the test with A549 [6] was Active. In addition, half-maximal inhibition with A549 [3] (IC50) required 30 µM. Further, in the test with A549 [5], the result was inactive.
With `CCOC(=O)c1cc(-c2ccc(OC)cc2)nn1CC(O)COc1ccccc1OC` (stereo unspecified), the outcome with A549 [1] and with A549 [6] was Active. Further, in the test on A549 [3], half-maximal inhibition (IC50) required 68 µM.
As to `CCOC(=O)c1cc(-c2ccc(Cl)cc2)nn1CC(O)COc1ccc([N+](=O)[O-])cc1` (stereo unspecified), the outcome in the test with A549 [1], with A549 [2], in the test with A549 [4] and in the test on A549 [6] was Active. The same compound returned an IC50 with A549 [3] of 45 µM. Moreover, the result in the test on A549 [5] was inactive.
With `CCOC(=O)c1cc(-c2ccc(Cl)cc2)nn1CC(O)COc1ccccc1` (stereo unspecified), the result in the test on A549 [1], with A549 [2], in the test with A549 [4], with A549 [7] and with A549 [6] was Active. For the same compound, the IC50 with A549 [3] stood at 27 µM. In the test on A549 [5], the outcome was inactive.
For the compound `CCOC(=O)c1cc(-c2ccc(Cl)cc2)nn1CC(O)COc1ccc(Cl)cc1` (stereo unspecified), the result in the test on A549 [1], with A549 [5], in the test on A549 [6] and with A549 [8] was Active. In the test with A549 [3], the IC50 was found to be 33 µM.
On to `CCOC(=O)c1cc(-c2ccccc2)nn1CC(O)COc1ccccc1` (stereo unspecified), for which the result in the test on A549 [1], in the test on A549 [5] and in the test with A549 [6] was Active. This compound displayed an IC50 in the test on A549 [3] of 65 µM.
Take `CCOC(=O)c1cc(-c2ccc(OC)cc2)nn1CC(O)COc1ccccc1[N+](=O)[O-]` (stereo unspecified): the result in the test with A549 [1] and with A549 [6] was Active. In the test with A549 [3], this compound displayed an IC50 of 45 µM.
As to `CCOC(=O)c1cc(-c2ccc(OC)cc2)nn1CC(O)COc1ccc([N+](=O)[O-])cc1` (stereo unspecified), the result in the test with A549 [1] and with A549 [6] was Active. Moreover, in the test with A549 [3], half-maximal inhibition (IC50) was put at 44 µM.
